According to article PMC5454942, “The Potential of Triterpenoids from Loquat Leaves (Eriobotrya japonica) for Prevention and Treatment of Skin Disorder” (International Journal of Molecular Sciences, 2017):
Converted amounts (≈) assume the structure as drawn. “And” between values parts separate entries of the source, which are not always exact repeats. Equal entries are not always repeated. Where two headings read alike, the source gives them in different places.

Tests used:
B16 melanoma cells [1] = experiment: Anti-melanogenesis assay (melanin content); assay type: cell-based, mouse; conditions: for S.I (selectivity index, CC50 value/IC50 value) / IC50: B16 melanoma cells; for inhibition at 1 µg/mL: 1 μg/ml; for inhibition at 2.5 µg/mL: 2.5 μg/ml; for inhibition at 5 µg/mL: 5 μg/ml; for inhibition at 10 µg/mL: 10 μg/ml
Method in brief: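 B16 cells treated with samples in DMSO (<0.2%) for 48 h, then re-dosed in fresh medium for a further 24 h; arbutin served as positive control. Melanin content read at 405 nm and viability by MTT at 570 nm.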

[2] = Cell viability of B16 melanoma cells (MTT); conditions: mouse
B16 melanoma cells [3] = experiment: Cell viability of B16 melanoma cells (MTT); conditions: B16 cells
Propionibacterium acnes = experiment: Anti-bacterial assay (growth inhibition, MIC/MBC by broth microdilution); assay type: cell-based; conditions: for MBC / MIC / inhibition at 100 µg/mL: Cutibacterium acnes; for inhibition at 100 µg/mL: read-out: Inhibition Rate (P. acnes growth); for activity against P. acnes (in words): at their maximum solubility
Method in brief: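 P. acnes NBRC 107605 grown in GAM broth 30 h at 37 °C, then used at 10^5 CFU/mL. Compounds in DMSO incubated with bacteria 30 h at 37 °C; growth read at 630 nm. MIC and MBC by broth microdilution.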

RBL-2H3 cells = experiment: β-hexosaminidase release from IgE-stimulated RBL-2H3 mast cells; assay type: cell-based, rat
Method in brief: (§1)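 IgE-sensitized RBL-2H3 cells (0.5 μg/mL anti-DNP IgE, 24 h) treated with sample 30 min in Tyrode buffer, then challenged 1 h with 50 μg/mL DNP-BSA. Released β-hexosaminidase measured with 2 mM p-nitrophenyl-N-acetyl-β-glucosaminide, 3 h, A405; viability by parallel MTT.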

[4] = Cell viability of RBL-2H3 cells (parallel MTT); assay type: cell-based, rat; conditions: rat; 25 μg/ml, RBL-2H3 cells; read-out: Cell viability
Method in brief: as §1

NHDF-Ad cells = experiment: Hyaluronic acid production assay (ELISA, with MTT); assay type: cell-based, human; conditions: fold of control
Method: NHDF-Ad cells were seeded on 96-well plates (5 × 10^3 cells/well) for 24 h before the treatment. The medium was replaced with a mixture of 1 μL of sample solution (DMSO < 0.5% per well) and 99 μL of DMEM supplemented with 0.5% FBS. After 72 h cultivation, the amount of hyaluronic acid in the medium was measured using a QnE Hyaluronic acid ELISA kit (Biotech Trading Partners, Encinitas, CA, USA). The amount of hyaluronic acid production was quantitatively calculated from the standard curve. Cell viability was measured by the MTT method, and ascorbic acid was used as a positive control.

mushroom tyrosinase = experiment: Tyrosinase inhibition assay; assay type: biochemical; conditions: for inhibitory effect on tyrosinase (in words): L-DOPA as substrate; for inhibitory activity on tyrosinase (in words): L-tyrosine as substrate, relatively high concentrations
Method: Tyrosinase inhibition activity was evaluated by using L-tyrosine and L-DOPA as substrates, as described. Briefly, 333 μL of 2.5 mM L-tyrosine or L-DOPA solution (Sigma-Aldrich) was mixed with 600 μL of 0.1 M phosphate buffer (pH 6.8) and incubated at 25 °C. Then, 33 μL of the sample solution (dissolved in DMSO in various concentrations) and 33 μL of 1380 units/mL mushroom tyrosinase (Sigma-Aldrich) were added to the mixture. The optical density was measured at 475 nm up to the appropriate time. Kojic acid (Sigma-Aldrich) was used as the positive control; the final concentration is 3.3 μg/mL.

[5] = tested on: inflammation induced by 12-O-tetradecanoylphorbol-13-acetate (TPA); design: method as in PMID 16204964, PMID 14745168; conditions: mice; cited from earlier work
[6] = tested on: Epstein–Barr virus early antigen; design: method as in PMID 16204964, PMID 14745168; conditions: cited from earlier work
[7] = Mus musculus, B16 cells, read-out: Inhibition rate (100% − melanin synthesis)
[8] = Mus musculus, read-out: IC50 (melanin synthesis)
[9] = Mus musculus, read-out: IC50 melanin
[10] = P. acnes, broth microdilution, read-out: MBC
[11] = P. acnes, broth microdilution, read-out: MIC
[12] = Rattus norvegicus, RBL-2H3, 25 μg/mL, read-out: Inhibition Rate (β-hexosaminidase release)
[13] = Rattus norvegicus, RBL-2H3, read-out: Inhibition Rate (β-hexosaminidase release)

C[C@H]1[C@H](C)CC[C@]2(C(=O)O)CC[C@]3(C)C(=CC[C@@H]4[C@@]5(C)C[C@@H](O)[C@H](O)C(C)(C)[C@@H]5CC[C@]43C)[C@H]12 [Compound 8, Corosolic acid]
S.I (selectivity index, CC50 value/IC50 value) (B16 melanoma cells [1]): 1.4
inhibition at 1 µg/mL (B16 melanoma cells [1]; [7]): 3.4 ± 5.1%
inhibition at 2.5 µg/mL (B16 melanoma cells [1]; [7]): 0.5 ± 4.1%
inhibition at 5 µg/mL (B16 melanoma cells [1]; [7]): 17.4 ± 5.5%
inhibition at 10 µg/mL (B16 melanoma cells [1]; [7]): 59.8 ± 1.9%
IC50 (B16 melanoma cells [1]; [8]): 18.7 µM
IC50 (B16 melanoma cells [1]; [9]): 8.8 µg/mL
CC50 at 72 h ([2]; B16 melanoma cells): 12.2 µg/mL and 25.8 µM
Inhibition rate (100% − cell viability) (B16 melanoma cells [3]; 1 μg/ml): 0.0 ± 3.5%
Inhibition rate (100% − cell viability) (B16 melanoma cells [3]; 2.5 μg/ml): 0.0 ± 3.8%
Inhibition rate (100% − cell viability) (B16 melanoma cells [3]; 5 μg/ml): 0.3 ± 4.0%
Inhibition rate (100% − cell viability) (B16 melanoma cells [3]; 10 μg/ml): 39.3 ± 4.7%
Inhibition rate (100% − cell viability) (B16 melanoma cells [3]; 20 μg/ml): 94.8± 0.3%
MBC (Propionibacterium acnes; [10]): 100 µg/mL (≈ 212 µM)
MIC (Propionibacterium acnes; [11]): 50 µg/mL (≈ 106 µM)
inhibition at 100 µg/mL (Propionibacterium acnes; concentration 100 μg/mL): 105.9 ± 0.4%
activity against P. acnes (in words) (Propionibacterium acnes): active
inhibition at 25 µg/mL (RBL-2H3 cells; [12]): 36.1 ± 6.7%
viability at 25 μg/ml [4]: 80.4 ± 1.6%
HA/CV value (hyaluronic acid %/cell viability %) (NHDF-Ad cells; 10 μg/mL): 5.9

CC1(C)CC[C@]2(C(=O)O)CC[C@]3(C)C(=CC[C@@H]4[C@@]5(C)C[C@@H](O)[C@H](O)C(C)(C)[C@@H]5CC[C@]43C)[C@@H]2C1 [Compound 7, Maslinic acid]
S.I (selectivity index, CC50 value/IC50 value) (B16 melanoma cells [1]): > 1.0
inhibition at 1 µg/mL (B16 melanoma cells [1]; [7]): 2.8 ± 1.1%
inhibition at 2.5 µg/mL (B16 melanoma cells [1]; [7]): 12.2 ± 1.9%
inhibition at 5 µg/mL (B16 melanoma cells [1]; [7]): 47.5 ± 0.4%
inhibition at 10 µg/mL (B16 melanoma cells [1]; [7]): 54.5 ± 3%
inhibition at 20 µg/mL (B16 melanoma cells [1]; Mus musculus, 20 μg/ml, B16 cells, read-out: Inhibition rate (100% − melanin synthesis)): 65.1 ± 0.4%
IC50 (B16 melanoma cells [1]; [8]): 18.5 µM
IC50 (B16 melanoma cells [1]; [9]): 8.7 µg/mL
CC50 at 72 h [2]: 13.8 µg/mL and 29.3 µM
Inhibition rate (100% − cell viability) (B16 melanoma cells [3]; 1 μg/ml): 2.5 ± 2.2%
Inhibition rate (100% − cell viability) (B16 melanoma cells [3]; 2.5 μg/ml): 3.2 ± 4.8%
Inhibition rate (100% − cell viability) (B16 melanoma cells [3]; 5 μg/ml): 42.2 ± 4.0%
Inhibition rate (100% − cell viability) (B16 melanoma cells [3]; 10 μg/ml): 44.3 ± 6.4%
Inhibition rate (100% − cell viability) (B16 melanoma cells [3]; 20 μg/ml): 76.5± 3.0%
inhibitory effect on tyrosinase (in words) (mushroom tyrosinase): no inhibitory effect
inhibitory activity on tyrosinase (in words) (mushroom tyrosinase): moderate inhibitory activity
MBC (Propionibacterium acnes): 150 µg/mL (≈ 317 µM)
MIC (Propionibacterium acnes): 50 µg/mL (≈ 106 µM)
inhibition at 100 µg/mL (Propionibacterium acnes): 104 ± 3.1%
activity against P. acnes (in words) (Propionibacterium acnes): active
IC50 (RBL-2H3 cells; Rattus norvegicus, RBL-2H3, read-out: IC50 (β-hexosaminidase release), IgE-stimulated RBL-2H3 cells): 22.9 µM
inhibition at 5 µg/mL (RBL-2H3 cells; [13]): 9.5 ± 6.6%
inhibition at 12.5 µg/mL (RBL-2H3 cells; [13]): 58.2 ± 3%
inhibition at 25 µg/mL (RBL-2H3 cells; [13]): 66 ± 2.6%
IC50 (RBL-2H3 cells; read-out: IC50 (β-hexosaminidase release), IgE-stimulated RBL-2H3 cells): 22.8 µM
viability at 25 μg/ml [4]: 84.4%
inhibitory activity against TPA-induced inflammation (in words) [5]: significant inhibitory activity
inhibitory activity against TPA-induced Epstein–Barr virus early antigen activation (in words) [6]: significant inhibitory activity

C[C@H]1[C@H](C)CC[C@]2(C(=O)O)CC[C@]3(C)C(=CC[C@@H]4[C@@]5(C)CC[C@H](O)C(C)(C)[C@@H]5CC[C@]43C)[C@H]12 [Compound 1, Ursolic acid]
inhibition at 0.5 µg/mL (B16 melanoma cells [1]; Mus musculus, 0.5 μg/ml, B16 cells, read-out: Inhibition rate (100% − melanin synthesis)): 4.2 ± 1.7%
inhibition at 1 µg/mL (B16 melanoma cells [1]; [7]): 24 ± 0.8%
inhibition at 2.5 µg/mL (B16 melanoma cells [1]; [7]): 58.5 ± 3.2%
IC50 (B16 melanoma cells [1]; [8]): 4.8 µM
IC50 (B16 melanoma cells [1]; [9]): 2.2 µg/mL
CC50 at 72 h ([2]; B16 melanoma cells): 4.3 µg/mL and 9.4 µM
inhibitory effect on tyrosinase (in words) (mushroom tyrosinase): no inhibitory effect
inhibitory activity on tyrosinase (in words) (mushroom tyrosinase): moderate inhibitory activity
MBC (Propionibacterium acnes; [10]): 100 µg/mL (≈ 219 µM)
MIC (Propionibacterium acnes; [11]): 50 µg/mL (≈ 109 µM)
inhibition at 100 µg/mL (Propionibacterium acnes; concentration 100 μg/mL): 109.8 ± 0.5%
activity against P. acnes (in words) (Propionibacterium acnes): active
inhibition at 5 µg/mL (RBL-2H3 cells; Rattus norvegicus, RBL-2H3, 5 μg/mL, read-out: Inhibition Rate (β-hexosaminidase release)): 0%
inhibition at 12.5 µg/mL (RBL-2H3 cells; Rattus norvegicus, RBL-2H3, 12.5 μg/mL, read-out: Inhibition Rate (β-hexosaminidase release)): 37.6 ± 3%
inhibition at 25 µg/mL (RBL-2H3 cells; [12]): 72.5 ± 3%
IC50 (RBL-2H3 cells; Rattus norvegicus, IgE-stimulated RBL-2H3 cells, read-out: IC50 (β-hexosaminidase release)): 39.5 µM
viability at 25 μg/ml [4]: 103 ± 5.3%
HA/CV value (hyaluronic acid %/cell viability %) (NHDF-Ad cells; 5 μg/mL): 4.7
inhibitory activity against TPA-induced inflammation (in words) [5]: significant inhibitory activity
inhibitory activity against TPA-induced Epstein–Barr virus early antigen activation (in words) [6]: significant inhibitory activity

C[C@@H]1CC[C@]2(C(=O)O)CC[C@]3(C)C(=CC[C@@H]4[C@@]5(C)CC[C@H](O)C(C)(C)[C@@H]5CC[C@]43C)[C@@H]2[C@]1(C)O [Compound 10, Pomolic acid]
S.I (selectivity index, CC50 value/IC50 value) (B16 melanoma cells [1]): 0.8
inhibition at 1 µg/mL (B16 melanoma cells [1]; [7]): 3.2 ± 8.2%
inhibition at 2.5 µg/mL (B16 melanoma cells [1]; [7]): 28.4 ± 1.5%
inhibition at 5 µg/mL (B16 melanoma cells [1]; [7]): 43.9 ± 1.9%
inhibition at 10 µg/mL (B16 melanoma cells [1]; [7]): 55.8 ± 8.1%
IC50 (B16 melanoma cells [1]; [8]): 14 µM
IC50 (B16 melanoma cells [1]; [9]): 6.6 µg/mL
CC50 at 72 h ([2]; B16 melanoma cells): 4.9 µg/mL and 10.5 µM
Inhibition rate (100% − cell viability) (B16 melanoma cells [3]; 1 μg/ml): 1.9 ± 5.4%
Inhibition rate (100% − cell viability) (B16 melanoma cells [3]; 2.5 μg/ml): 0.0 ± 6.1%
Inhibition rate (100% − cell viability) (B16 melanoma cells [3]; 5 μg/ml): 50.9 ± 4.4%
Inhibition rate (100% − cell viability) (B16 melanoma cells [3]; 10 μg/ml): 68.4 ± 1.5%
inhibition at 100 µg/mL (Propionibacterium acnes; concentration 100 μg/mL): 84.4 ± 1.2%
activity against P. acnes (in words) (Propionibacterium acnes): active
inhibition at 25 µg/mL (RBL-2H3 cells; [12]): 22.4 ± 1.9%
viability at 25 μg/ml [4]: 77 ± 5.3%
HA/CV value (hyaluronic acid %/cell viability %) (NHDF-Ad cells; 10 μg/mL): 5.8
